Reference: PubChem BioAssay AID1963825 (Molecular Pharmacology Branch, DTP, NCI, 2024)
pIC50: −log10 of the molar value.

Test: Anticancer human tumor 997537-175-T-J1-PDC patient-derived colon adenocarcinoma cell line growth inhibition [POLQ]
Conditions: 997537-175-T-J1-PDC complex spheroid viability, combination with POLQ inhibitors; for pIC50: curve of first compound; for viability, T/C: stronger effect = lower value
Outline: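 Patient-derived tumour cells were co-cultured with HUVEC and mesenchymal stem cells as multicellular spheroids at 37 °C. They were treated with POLQ inhibitors (novobiocin, ART-558, RP6685) alone or combined with other agents. Top concentrations were at or near clinical Cmax (otherwise 10 microM; SN-38 at 1 microM), decreasing in half-log steps.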

[1] = second compound 0.0316 µM, first compound 0.0316 µM
[2] = second compound 0.0316 µM, first compound 0.1 µM
[3] = second compound 0.0316 µM, first compound 0.316 µM
[4] = second compound 0.0316 µM, first compound 1 µM
[5] = second compound 0.0316 µM, first compound 3.16 µM
[6] = second compound 0.0316 µM, first compound 10 µM
[7] = second compound 0.1 µM, first compound 0.0316 µM
[8] = second compound 0.1 µM, first compound 0.1 µM
[9] = second compound 0.1 µM, first compound 0.316 µM
[10] = second compound 0.1 µM, first compound 1 µM
[11] = second compound 0.1 µM, first compound 3.16 µM
[12] = second compound 0.1 µM, first compound 10 µM
[13] = second compound 0.316 µM, first compound 0.0316 µM
[14] = second compound 0.316 µM, first compound 0.1 µM
[15] = second compound 0.316 µM, first compound 0.316 µM
[16] = second compound 0.316 µM, first compound 1 µM
[17] = second compound 0.316 µM, first compound 3.16 µM
[18] = second compound 0.316 µM, first compound 10 µM
[19] = second compound 1 µM, first compound 0.0316 µM
[20] = second compound 1 µM, first compound 0.1 µM
[21] = second compound 1 µM, first compound 0.316 µM
[22] = second compound 1 µM, first compound 1 µM
[23] = second compound 1 µM, first compound 3.16 µM
[24] = second compound 1 µM, first compound 10 µM
[25] = second compound 3.16 µM, first compound 0.0316 µM
[26] = second compound 3.16 µM, first compound 0.1 µM
[27] = second compound 3.16 µM, first compound 0.316 µM
[28] = second compound 3.16 µM, first compound 1 µM
[29] = second compound 3.16 µM, first compound 3.16 µM
[30] = second compound 3.16 µM, first compound 10 µM
[31] = second compound 10 µM, first compound 0.0316 µM
[32] = second compound 10 µM, first compound 0.1 µM
[33] = second compound 10 µM, first compound 0.316 µM
[34] = second compound 10 µM, first compound 1 µM
[35] = second compound 10 µM, first compound 3.16 µM
[36] = second compound 10 µM, first compound 10 µM
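Also: luminescence signal used as a surrogate for viable cells; spheroids exposed to drugs for seven days before readout.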

Work on `CCCS(=O)(=O)Nc1ccc(F)c(C(=O)c2c[nH]c3ncc(-c4ccc(Cl)cc4)cc23)c1F` + COC1C(OC(N)=O)C(O)C(Oc2ccc3c(O)c(NC(=O)c4ccc(O)c(CC=C(C)C)c4)c(=O)oc3c2C)OC1(C)C yielded a pIC50 (second compound 0.0316 µM) of 5.24, a pIC50 (second compound 0.1 µM) of 5.12 and a pIC50 (second compound 0.316 µM) of 5.18. For the same compound, the pIC50 (second compound 1 µM) was 5.28, the pIC50 (second compound 3.16 µM) was 5.21 and the pIC50 (second compound 10 µM) was 5.32. For the same compound, the viability, T/C [1] was 93.4%, the viability, T/C [2] was 96% and the viability, T/C [3] was 87.1%. For the same compound, the viability, T/C [4] was 84.8%, the viability, T/C [5] was 71.5% and the viability, T/C [6] was 30.6%. For the same compound, the viability, T/C [7] was 102%, the viability, T/C [8] was 92.6% and the viability, T/C [9] was 84.9%. The viability, T/C [10] was 78%, the viability, T/C [11] was 77% and the viability, T/C [12] was 41.2%. The viability, T/C [13] was 82.8%, the viability, T/C [14] was 91.6% and the viability, T/C [15] was 77.8%. The viability, T/C [16] was 84.1%, the viability, T/C [17] was 75% and the viability, T/C [18] was 36.2%. For the same compound, the viability, T/C [19] was 86.4%, the viability, T/C [20] was 79.5% and the viability, T/C [21] was 73.2%. It also gave a viability, T/C [22] of 75.2%, a viability, T/C [23] of 72.7% and a viability, T/C [24] of 21.7%. The viability, T/C [25] was 95.6%, the viability, T/C [26] was 78.9% and the viability, T/C [27] was 77.3%. For the same compound, the viability, T/C [28] was 73.5%, the viability, T/C [29] was 78% and the viability, T/C [30] was 30.1%. It also gave a viability, T/C [31] of 81.4%, a viability, T/C [32] of 84% and a viability, T/C [33] of 90.8%. It also gave a viability, T/C [34] of 85.6%, a viability, T/C [35] of 63.9% and a viability, T/C [36] of 25.3%.
`CCc1cc2c(N3CCc4c(cc(Cn5ccnc5)cc4-c4cn(C)nc4C(F)(F)F)C3=O)cc(C)nc2c(OC)n1` + COC1C(OC(N)=O)C(O)C(Oc2ccc3c(O)c(NC(=O)c4ccc(O)c(CC=C(C)C)c4)c(=O)oc3c2C)OC1(C)C showed a pIC50 (second compound 0.0316 µM) of under 5.00, a pIC50 (second compound 0.1 µM) of 5.20 and a pIC50 (second compound 0.316 µM) of under 5.00. The pIC50 (second compound 1 µM) was under 5.00, the pIC50 (second compound 3.16 µM) was under 5.00 and the pIC50 (second compound 10 µM) was under 5.00. It also gave a viability, T/C [1] of 95.1%, a viability, T/C [2] of 123% and a viability, T/C [3] of 88.9%. It also gave a viability, T/C [4] of 95.2%, a viability, T/C [5] of 69.1% and a viability, T/C [6] of 55.2%. The viability, T/C [7] was 106%, the viability, T/C [8] was 93.3% and the viability, T/C [9] was 75.1%. It also gave a viability, T/C [10] of 68.8%, a viability, T/C [11] of 70% and a viability, T/C [12] of 39.1%. The viability, T/C [13] was 110%, the viability, T/C [14] was 107% and the viability, T/C [15] was 93.5%. For the same compound, the viability, T/C [16] was 80.7%, the viability, T/C [17] was 76.1% and the viability, T/C [18] was 66.7%. For the same compound, the viability, T/C [19] was 102%, the viability, T/C [20] was 114% and the viability, T/C [21] was 86.4%. It also gave a viability, T/C [22] of 61.1%, a viability, T/C [23] of 64.2% and a viability, T/C [24] of 60.1%. It also gave a viability, T/C [25] of 113%, a viability, T/C [26] of 104% and a viability, T/C [27] of 100%. The viability, T/C [28] was 68.6%, the viability, T/C [29] was 49.8% and the viability, T/C [30] was 65.6%. For the same compound, the viability, T/C [31] was 92.1%, the viability, T/C [32] was 88.7% and the viability, T/C [33] was 74.3%. For the same compound, the viability, T/C [34] was 66.9%, the viability, T/C [35] was 54.5% and the viability, T/C [36] was 59.8%.
Compound `C=CCn1c(=O)c2cnc(Nc3ccc(N4CCN(C)CC4)cc3)nc2n1-c1cccc(C(C)(C)O)n1` + Cc1cccc(N(C)C(=O)C2C(O)CCN2c2nc(C)cc(C(F)(F)F)c2C#N)c1 has a pIC50 (second compound 0.0316 µM) of under 6.00, a pIC50 (second compound 0.1 µM) of under 6.00 and a pIC50 (second compound 0.316 µM) of under 6.00. The pIC50 (second compound 1 µM) was under 6.00, the pIC50 (second compound 3.16 µM) was under 6.00 and the pIC50 (second compound 10 µM) was under 6.00. It also gave a viability, T/C (second compound 0.0316 µM, first compound 0.00316 µM) of 101%, a viability, T/C (second compound 0.0316 µM, first compound 0.01 µM) of 100% and a viability, T/C [1] of 93.9%. For the same compound, the viability, T/C [2] was 90.9%, the viability, T/C [3] was 100% and the viability, T/C [4] was 76.2%. The viability, T/C (second compound 0.1 µM, first compound 0.00316 µM) was 99.4%, the viability, T/C (second compound 0.1 µM, first compound 0.01 µM) was 109% and the viability, T/C [7] was 95%. The viability, T/C [8] was 88.8%, the viability, T/C [9] was 81.2% and the viability, T/C [10] was 64.2%. It also gave a viability, T/C (second compound 0.316 µM, first compound 0.00316 µM) of 89.4%, a viability, T/C (second compound 0.316 µM, first compound 0.01 µM) of 113% and a viability, T/C [13] of 110%. For the same compound, the viability, T/C [14] was 91.9%, the viability, T/C [15] was 83.2% and the viability, T/C [16] was 75%. It also gave a viability, T/C (second compound 1 µM, first compound 0.00316 µM) of 118%, a viability, T/C (second compound 1 µM, first compound 0.01 µM) of 109% and a viability, T/C [19] of 106%. It also gave a viability, T/C [20] of 99.8%, a viability, T/C [21] of 113% and a viability, T/C [22] of 84.9%. The viability, T/C (second compound 3.16 µM, first compound 0.00316 µM) was 93.2%, the viability, T/C (second compound 3.16 µM, first compound 0.01 µM) was 95.6% and the viability, T/C [25] was 101%. It also gave a viability, T/C [26] of 96.1%, a viability, T/C [27] of 85.4% and a viability, T/C [28] of 59.6%. It also gave a viability, T/C (second compound 10 µM, first compound 0.00316 µM) of 111%, a viability, T/C (second compound 10 µM, first compound 0.01 µM) of 99.5% and a viability, T/C [31] of 95.3%. For the same compound, the viability, T/C [32] was 93.6%, the viability, T/C [33] was 78.9% and the viability, T/C [34] was 94.8%.
`CC(C)n1c(=O)n(C)c2cnc3cc(F)c(-c4ccc(OCCCN5CCCCC5)nc4)cc3c21` + COC1C(OC(N)=O)C(O)C(Oc2ccc3c(O)c(NC(=O)c4ccc(O)c(CC=C(C)C)c4)c(=O)oc3c2C)OC1(C)C showed a pIC50 (second compound 0.0316 µM) of under 5.00, a pIC50 (second compound 0.1 µM) of under 5.00 and a pIC50 (second compound 0.316 µM) of under 5.00. It also gave a pIC50 (second compound 1 µM) of under 5.00, a pIC50 (second compound 3.16 µM) of under 5.00 and a pIC50 (second compound 10 µM) of under 5.00. The viability, T/C [1] was 79%, the viability, T/C [2] was 104% and the viability, T/C [3] was 106%. For the same compound, the viability, T/C [4] was 89.6%, the viability, T/C [5] was 102% and the viability, T/C [6] was 89.5%. The viability, T/C [7] was 103%, the viability, T/C [8] was 102% and the viability, T/C [9] was 102%. It also gave a viability, T/C [10] of 96%, a viability, T/C [11] of 93.8% and a viability, T/C [12] of 88.1%. For the same compound, the viability, T/C [13] was 83.8%, the viability, T/C [14] was 102% and the viability, T/C [15] was 114%. It also gave a viability, T/C [16] of 80.4%, a viability, T/C [17] of 89.2% and a viability, T/C [18] of 77.7%. For the same compound, the viability, T/C [19] was 97.6%, the viability, T/C [20] was 97.3% and the viability, T/C [21] was 102%. It also gave a viability, T/C [22] of 99.6%, a viability, T/C [23] of 93.2% and a viability, T/C [24] of 88%. It also gave a viability, T/C [25] of 98.4%, a viability, T/C [26] of 97.8% and a viability, T/C [27] of 90.7%. It also gave a viability, T/C [28] of 88%, a viability, T/C [29] of 80% and a viability, T/C [30] of 89.8%. The viability, T/C [31] was 103%, the viability, T/C [32] was 95.8% and the viability, T/C [33] was 90.9%. The viability, T/C [34] was 82.6%, the viability, T/C [35] was 80.1% and the viability, T/C [36] was 85.5%.
